How the values were obtained:
[1] = Anti-HIV activity by using phytohemagglutininin-stimulated peripheral blood mononuclear cell(PHA/PBM) test system; type: functional; details: Homo sapiens
[2] = Partition coefficient (logP); type: physicochemical; details: octanol/water

SMILES | IC50 [1] [µM] | logP [2]
OCC1CC(F)C(n2cnc3c(NO)ncnc32)O1 (centres undefined) | 6.8 | -0.983
OCC1CC(F)C(n2cnc3c(NOCc4ccccc4)ncnc32)O1 (centres undefined) | > 80 | 1.25
CONc1ncnc2c1ncn2C1OC(CO)CC1F (centres undefined) | > 80 | -0.414
O=[N+]([O-])c1ncnc2c1ncn2C1OC(CO)CC1F (centres undefined) | 9.6 | -0.395
CCNc1ncnc2c1ncn2C1OC(CO)CC1F (centres undefined) | 11.1 | 0.779
O=c1[nH]cnc2c1ncn2[C@H]1CC[C@@H](CO)O1 [DIDANOSINE] | 0.3 | 

Continued, values first:

IC50 [1] [µM] | logP [2] | SMILES
> 5 |  | OCC1CC(F)C(n2cnc3c(F)ncnc32)O1 (centres undefined)
5.9 |  | OCC1CC(F)C(n2cnc3c(Cl)ncnc32)O1 (centres undefined)
13.1 |  | CNc1ncnc2c1ncn2C1OC(CO)CC1F (centres undefined)
6.3 |  | OCC1CC(F)C(n2cnc3c(O)ncnc32)O1 (centres undefined)
18 | 0.797 | CN(C)c1ncnc2c1ncn2C1OC(CO)CC1F (centres undefined)
36.3 |  | NNc1ncnc2c1ncn2C1OC(CO)CC1F (centres undefined)
3.3 |  | Nc1ncnc2c1ncn2[C@@H]1O[C@H](CO)C[C@@H]1F [LODENOSINE]

From ChEMBL document CHEMBL1129582, “Lipophilic, acid-stable, adenosine deaminase-activated anti-HIV prodrugs for central nervous system delivery. 3. 6-Amino prodrugs of 2'-beta-fluoro-2',3'-dideoxyinosine” (J Med Chem, 1996)
